Columns and labels:
[1] = test system: PAF-induced platelet aggregation (washed PRP); assay: Activity to inhibit PAF in platelet aggregation (washed PRP); assay type: cell-based; details: Oryctolagus cuniculus, male rabbit, compound 3×10^-5 M, PAF 3×10^-5 M, 37° C., read-out: inhibition rate relative to the maximum transmission (maximum aggregation) of control PRP by PAF
Method: Activity to inhibit PAF in platelet aggregation
Using an injection syringe containing a 3.15% solution of citric acid (in a ratio of 1 part per 9 parts of blood) as an anticoagulant, the blood was directly collected from a male rabbit. Then, at room temperature, the blood was centrifuged at 1,000 r.p.m. for 10 minutes to harvest a platelet rich plasm (PRP). This PRP was further centrifuged at 1,400 r.p.m. for 15 minutes to give platelet pellets. The pellets were suspended in Ca^++ -free Tyrode solution (containing 0.25% of gelatin) to give a washed PRP. This washed PRP (250 μl) was stirred at 37° C. for 2 minutes, then 25 μl of a 0.2 to 0.5 mM Ca^++ solution was added, and the mixture was further stirred for 30 seconds. Then, the compound obtained in Example 5 was added to a concentration of 3×10^-5 M. After stirring the mixture for 2 minutes, 3×10^-5 M of PAF was added. The degree of platelet aggregation was determined with a platelet aggregometer (Rika Denki). The activity of the test drug was estimated from the inhibition rate relative to the maximum transmission (maximum aggregation) of control PRP by PAF. The inhibition rate thus found was 70%.

[2] = test system: PAF-induced platelet aggregation (PRP); assay: Activity on inhibiting platelet aggregation (PRP, PAF-induced); assay type: cell-based; details: male rabbit, PAF 1×10^-8 M, 37° C.
Method: Activity on inhibiting platelet aggregation
Using an injection syringe containing 3.15% citric acid (in a ratio of 1 part per 9 parts of blood) as an anticoagulant, the blood was directly collected from a male rabbit. Then, at room temperature, the blood was centrifuged at 800 r.p.m. for 10 minutes to harvest a platelet rich plasma (PRP). The remaining blood was further centrifuged at 3,000 r.p.m. for 10 minutes to separate a platelet poor plasma (PPP) as a supernatant. The PRP was diluted with the PPP to adjust the number of platelets to about 0.5 million (5×10^5) per μl. This PRP (250 μl) was stirred at 37° C. for 2 minutes, and the test compound was added to the PRP. After stirring the mixture for 2 minutes, 1×10^-8 M of PAF was added to the mixture. The degree of platelet aggregation was determined with a platelet aggregometer (Rika Denki). The aggregation inhibitory activity of the test compound was estimated from the inhibition rate relative to the maximum transmission (maximum aggregation) of control PRP by PAF.

| SMILES | inhibition at 30 µM [1] [%] | Inhibition rate (%) ([2]; test compound 3 × 10^-5 (M)) | Inhibition rate (%) ([2]; test compound 3 × 10^-6 (M)) |
| --- | --- | --- | --- |
| CCCCCCCCCCCCCCCCCCOCC(COP(=O)([O-])OCC[n+]1ccccc1)N1C(=O)c2ccccc2C1=O (centres unmarked) [Example 5, 3-Octadecyloxy-2-phthalimidopropyl 2-pyridinioethyl phosphate] | 70 | – | – |
| CCCCCCCCCCCCCCCCCCOCC(COP(=O)([O-])OCC[n+]1ccsc1)N1C(=O)c2ccccc2C1=O (centres unmarked) [Example 6, 3-Octadecyloxy-2-phthalimidopropyl 2-thiazolioethyl phosphate] | – | 100 | 96 |
| CCCCCCCCCCCCCCCCCCOCC(COP(=O)([O-])OCC[n+]1ccsc1)N1C(=O)CCC1=O (centres unmarked) [Example 12, 3-Octadecyloxy-2-succinimidopropyl 2-thiazolioethyl phosphate] | – | 100 | 32 |

From patent US4650791A, “Certain 3-alkoxy-2-cyclic-imido-propyl-phosphate-ethyl-cyclic ammonium hydroxide inner salts which inhibit activities of platelet activating factor” (Takedo Chemical Industries, Ltd., priority 1984, dated 1987)
